#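 The compound was tested at five concentrations on cells cultured in 96-well plates, with a 48-hour exposure period. GI50 is the concentration that inhibits growth by half. TGI denotes the concentration required for complete inhibition of growth.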
# What was measured:
# Assay in all cases: NCI-60 cell line screen, 48 h
# PC-3 prostate = system: PC-3 prostate
# T-47D breast = system: T-47D breast
# RXF 393 renal = system: RXF 393 renal
# SF-268 CNS = system: SF-268 CNS
# RPMI-8226 leukemia = system: RPMI-8226 leukemia
# CCRF-CEM leukemia = system: CCRF-CEM leukemia
# OVCAR-8 ovarian = system: OVCAR-8 ovarian
# MALME-3M melanoma = system: MALME-3M melanoma
# MOLT-4 leukemia = system: MOLT-4 leukemia
# UO-31 renal = system: UO-31 renal
# HL-60(TB) leukemia = system: HL-60(TB) leukemia
# DU-145 prostate = system: DU-145 prostate
# HCC-2998 colon = system: HCC-2998 colon
# 786-0 renal = system: 786-0 renal
# KM12 colon = system: KM12 colon
# UACC-62 melanoma = system: UACC-62 melanoma
# SNB-75 CNS = system: SNB-75 CNS
# NCI-H460 lung = system: NCI-H460 lung
# NCI-H23 lung = system: NCI-H23 lung
# ACHN renal = system: ACHN renal
# NCI-H522 lung = system: NCI-H522 lung
# COLO 205 colon = system: COLO 205 colon
# SK-MEL-2 melanoma = system: SK-MEL-2 melanoma
# SK-MEL-5 melanoma = system: SK-MEL-5 melanoma
# M14 melanoma = system: M14 melanoma
# SF-539 CNS = system: SF-539 CNS
# SK-OV-3 ovarian = system: SK-OV-3 ovarian
# U251 CNS = system: U251 CNS
# EKVX NSCLC = system: EKVX NSCLC
# SF-295 CNS = system: SF-295 CNS
# NCI-H226 lung = system: NCI-H226 lung
# SK-MEL-28 melanoma = system: SK-MEL-28 melanoma
# HCT-116 colon = system: HCT-116 colon
# BT-549 breast = system: BT-549 breast
# MDA-MB-231 breast = system: MDA-MB-231 breast
# K-562 leukemia = system: K-562 leukemia
# UACC-257 melanoma = system: UACC-257 melanoma
# HOP-92 NSCLC = system: HOP-92 NSCLC
# HT29 colon = system: HT29 colon
# MDA-MB-435 = system: MDA-MB-435
# SR leukemia = system: SR leukemia
# NCI/ADR-RES ovarian = system: NCI/ADR-RES ovarian
# OVCAR-5 ovarian = system: OVCAR-5 ovarian
# SNB-19 CNS = system: SNB-19 CNS
# TK-10 renal = system: TK-10 renal
# IGROV1 ovarian = system: IGROV1 ovarian
# A498 renal = system: A498 renal
# LOX IMVI melanoma = system: LOX IMVI melanoma
# HS 578T breast = system: HS 578T breast
# HOP-62 NSCLC = system: HOP-62 NSCLC
# OVCAR-3 ovarian = system: OVCAR-3 ovarian
structure (smiles),measurement,setting,value
COc1ccc2nc3c(n2c1)C(=O)C(=O)c1ccccc1-3,GI50,PC-3 prostate,1520 nM
same,TGI,PC-3 prostate,9020 nM
same,GI50,T-47D breast,2020 nM
same,TGI,T-47D breast,5500 nM
same,GI50,RXF 393 renal,1840 nM
same,TGI,RXF 393 renal,3550 nM
same,GI50,SF-268 CNS,2050 nM
same,TGI,SF-268 CNS,5150 nM
same,GI50,RPMI-8226 leukemia,1520 nM
same,TGI,RPMI-8226 leukemia,5360 nM
same,GI50,CCRF-CEM leukemia,2600 nM
same,TGI,CCRF-CEM leukemia,6620 nM
same,GI50,OVCAR-8 ovarian,2410 nM
same,TGI,OVCAR-8 ovarian,9360 nM
same,GI50,MALME-3M melanoma,1550 nM
same,TGI,MALME-3M melanoma,2930 nM
same,GI50,MOLT-4 leukemia,2430 nM
same,TGI,MOLT-4 leukemia,5810 nM
same,GI50,UO-31 renal,1310 nM
same,TGI,UO-31 renal,2620 nM
same,GI50,HL-60(TB) leukemia,2230 nM
same,TGI,HL-60(TB) leukemia,5570 nM
same,GI50,DU-145 prostate,1660 nM
same,TGI,DU-145 prostate,3180 nM
same,GI50,HCC-2998 colon,1830 nM
same,TGI,HCC-2998 colon,3630 nM
same,GI50,786-0 renal,2070 nM
same,TGI,786-0 renal,4400 nM
same,GI50,KM12 colon,2050 nM
same,TGI,KM12 colon,5040 nM
same,GI50,UACC-62 melanoma,1470 nM
same,TGI,UACC-62 melanoma,2900 nM
same,GI50,SNB-75 CNS,1400 nM
same,TGI,SNB-75 CNS,2770 nM
same,GI50,NCI-H460 lung,1630 nM
same,TGI,NCI-H460 lung,3650 nM
same,GI50,NCI-H23 lung,1160 nM
same,TGI,NCI-H23 lung,4210 nM
same,GI50,ACHN renal,1460 nM
same,TGI,ACHN renal,2770 nM
same,GI50,NCI-H522 lung,1540 nM
same,TGI,NCI-H522 lung,3390 nM
same,GI50,COLO 205 colon,2730 nM
same,TGI,COLO 205 colon,8140 nM
same,GI50,SK-MEL-2 melanoma,1830 nM
same,TGI,SK-MEL-2 melanoma,3660 nM
same,GI50,SK-MEL-5 melanoma,1670 nM
same,TGI,SK-MEL-5 melanoma,3060 nM
same,GI50,M14 melanoma,1750 nM
same,TGI,M14 melanoma,3320 nM
same,GI50,SF-539 CNS,1820 nM
same,TGI,SF-539 CNS,3240 nM
same,GI50,SK-OV-3 ovarian,1750 nM
same,TGI,SK-OV-3 ovarian,3570 nM
same,GI50,U251 CNS,1510 nM
same,TGI,U251 CNS,2850 nM
same,GI50,EKVX NSCLC,1800 nM
same,TGI,EKVX NSCLC,4830 nM
same,GI50,SF-295 CNS,1620 nM
same,TGI,SF-295 CNS,3030 nM
same,GI50,NCI-H226 lung,2030 nM
same,TGI,NCI-H226 lung,4890 nM
same,GI50,SK-MEL-28 melanoma,1890 nM
same,TGI,SK-MEL-28 melanoma,3520 nM
same,GI50,HCT-116 colon,1580 nM
same,TGI,HCT-116 colon,3700 nM
same,GI50,BT-549 breast,1390 nM
same,TGI,BT-549 breast,2690 nM
same,GI50,MDA-MB-231 breast,2530 nM
same,TGI,MDA-MB-231 breast,10600 nM
same,GI50,K-562 leukemia,939 nM
same,TGI,K-562 leukemia,6090 nM
same,GI50,UACC-257 melanoma,1730 nM
same,TGI,UACC-257 melanoma,3130 nM
same,GI50,HOP-92 NSCLC,3090 nM
same,TGI,HOP-92 NSCLC,9530 nM
same,GI50,HT29 colon,2590 nM
same,TGI,HT29 colon,6190 nM
same,GI50,MDA-MB-435,192 nM
same,TGI,MDA-MB-435,353 nM
same,GI50,SR leukemia,2530 nM
same,TGI,SR leukemia,6590 nM
same,GI50,NCI/ADR-RES ovarian,2060 nM
same,TGI,NCI/ADR-RES ovarian,6580 nM
same,GI50,OVCAR-5 ovarian,1800 nM
same,TGI,OVCAR-5 ovarian,3320 nM
same,GI50,SNB-19 CNS,1980 nM
same,TGI,SNB-19 CNS,4400 nM
same,GI50,TK-10 renal,2620 nM
same,TGI,TK-10 renal,4780 nM
same,GI50,IGROV1 ovarian,1750 nM
same,TGI,IGROV1 ovarian,5340 nM
same,GI50,A498 renal,2440 nM
same,TGI,A498 renal,6110 nM
same,GI50,LOX IMVI melanoma,466 nM
same,TGI,LOX IMVI melanoma,1890 nM
CCCCCN1C(=O)/C(=c2\sc3n(c2=O)C2C(NN=3)N(CC)C(=O)N2CC)c2ccccc21 (centres undefined),GI50,RXF 393 renal,798 nM
same,TGI,RXF 393 renal,2830 nM
same,GI50,SF-268 CNS,1490 nM
same,TGI,SF-268 CNS,3770 nM
same,GI50,HS 578T breast,1030 nM
same,TGI,HS 578T breast,4480 nM
same,GI50,HL-60(TB) leukemia,1910 nM
same,TGI,HL-60(TB) leukemia,4070 nM
same,GI50,DU-145 prostate,2010 nM
same,TGI,DU-145 prostate,4520 nM
same,GI50,786-0 renal,1590 nM
same,TGI,786-0 renal,3270 nM
same,GI50,UACC-62 melanoma,1060 nM
same,TGI,UACC-62 melanoma,3290 nM
same,GI50,SNB-75 CNS,260 nM
same,TGI,SNB-75 CNS,1370 nM
same,GI50,HOP-62 NSCLC,1620 nM
same,TGI,HOP-62 NSCLC,3830 nM
same,GI50,NCI-H23 lung,1830 nM
same,TGI,NCI-H23 lung,5230 nM
same,GI50,ACHN renal,1170 nM
same,TGI,ACHN renal,2580 nM
same,GI50,NCI-H522 lung,754 nM
same,TGI,NCI-H522 lung,2290 nM
same,GI50,COLO 205 colon,1550 nM
same,TGI,COLO 205 colon,3560 nM
same,GI50,SK-MEL-2 melanoma,1550 nM
same,TGI,SK-MEL-2 melanoma,3300 nM
same,GI50,M14 melanoma,1280 nM
same,TGI,M14 melanoma,3980 nM
same,GI50,SF-539 CNS,1300 nM
same,TGI,SF-539 CNS,2610 nM
same,GI50,SK-OV-3 ovarian,1440 nM
same,TGI,SK-OV-3 ovarian,2920 nM
same,GI50,U251 CNS,1310 nM
same,TGI,U251 CNS,2720 nM
same,GI50,SF-295 CNS,833 nM
same,TGI,SF-295 CNS,3210 nM
same,GI50,BT-549 breast,2410 nM
same,TGI,BT-549 breast,10700 nM
same,GI50,MDA-MB-231 breast,1870 nM
same,TGI,MDA-MB-231 breast,4340 nM
same,GI50,HOP-92 NSCLC,1220 nM
same,TGI,HOP-92 NSCLC,3720 nM
same,GI50,HT29 colon,1650 nM
same,TGI,HT29 colon,3020 nM
same,GI50,MDA-MB-435,320 nM
same,TGI,MDA-MB-435,1080 nM
same,GI50,SNB-19 CNS,1880 nM
same,TGI,SNB-19 CNS,5250 nM
same,GI50,TK-10 renal,1800 nM
same,TGI,TK-10 renal,3440 nM
same,GI50,IGROV1 ovarian,1650 nM
same,TGI,IGROV1 ovarian,4150 nM
same,GI50,A498 renal,274 nM
same,TGI,A498 renal,1670 nM
same,GI50,OVCAR-3 ovarian,1410 nM
same,TGI,OVCAR-3 ovarian,3010 nM
